Values of other authors, collected in patent US8084059B2, “Antidepressant dosage form” (ALZA Corporation, priority 1993, dated 2011).

How the values were obtained:
[1] = tested on: neuronal uptake of dopamine; conditions: in vitro
effects of levodopa = conditions: in vivo
[2] = tested on: histamine-induced corticotropin release; conditions: in vivo
monoamine oxidase = conditions: in vitro
[3] = tested on: reserpine-induced hypothermia; conditions: in vivo
[4] = humans
[5] = tested on: neuronal uptake of morepinephrine; conditions: in vitro
[6] = tested on: cyclicadenosine monophosphate subsensitivity; conditions: after both acute and chronic administration

COc1ccc(C(CN(C)C)C2(O)CCCCC2)cc1 (centres unmarked) [1-[2-(dimethylamino)-1-(4-methoxyphenyl)ethyl]cyclohexanol]
neuronal uptake of dopamine [1]: prevents | effect on the effects of levodopa (effects of levodopa): potentiates | effect on histamine-induced corticotropin release [2]: reduces | inhibition of monoamine oxidase (monoamine oxidase): does not inhibit | effect on reserpine-induced hypothermia [3]: antagonizes | antidepressant activity [4]: excellent | neuronal uptake of morepinephrine [5]: prevents | cyclicadenosine monophosphate subsensitivity [6]: induces
